target: T1, human capsaicin receptor (Homo sapiens, UniProt Q8NER1); assay: Calcium mobilization assay, determination of antagonist activity (Example 6); type: cell-based; conditions: Table II; IC50 determined as described in Example 6 (antagonist activity, calcium mobilization)
T1 construct: pBK-CMV expression construct encoding the full length human capsaicin receptor; expressed in transfected cells
Method: A cDNA encoding full length human capsaicin receptor (SEQ ID NO: 1, 2 or 3 of U.S. Pat. No. 6,482,611) was subcloned in the plasmid pBK-CMV (Stratagene, La Jolla, Calif.) for recombinant expression in mammalian cells.
Human embryonic kidney (HEK293) cells were transfected with the pBK-CMV expression construct encoding the full length human capsaicin receptor using standard methods. The transfected cells were selected for two weeks in media containing G418 (400 μg/ml) to obtain a pool of stably transfected cells. Independent clones were isolated from this pool by limiting dilution to obtain clonal stable cell lines for use in subsequent experiments.
This Example illustrates representative calcium mobilization assays for use in evaluating test compounds for agonist and antagonist activity.
Cells transfected with expression plasmids (as described in Example 4) and thereby expressing human capsaicin receptor are seeded and grown to 70-90% confluency in FALCON black-walled, clear-bottomed 96-well plates (#3904, BECTON-DICKINSON, Franklin Lakes, N.J.). The culture medium is emptied from the 96 well plates and FLUO-3 AM calcium sensitive dye (Molecular Probes, Eugene, Oreg.) is added to each well (dye solution: 1 mg FLUO-3 AM, 440 μL DMSO and 440 pi 20% pluronic acid in DMSO, diluted 1:250 in Krebs-Ringer HEPES (KRH) buffer (25 mM HEPES, 5 mM KCl, 0.96 mM NaH2PO4, 1 mM MgSO4, 2 mM CaCl2, 5 mM glucose, 1 mM probenecid, pH 7.4), 50 μl diluted solution per well). Plates are covered with aluminum foil and incubated at 37° C. for 1-2 hours in an environment containing 5% CO2. After the incubation, the dye is emptied from the plates, and the cells are washed once with KRH buffer, and resuspended in KRH buffer.
To measure the ability of a test compound to agonize or antagonize a calcium mobilization response in cells expressing capsaicin receptors to capsaicin or other vanilloid agonist, the EC50 of the agonist capsaicin is first determined. An additional 20 μl of KRH buffer and 1 μl DMSO is added to each well of cells, prepared as described above. 100 μl capsaicin in KRH buffer is automatically transferred by the FLIPR instrument to each well. Capsaicin-induced calcium mobilization is monitored using either FLUOROSKAN ASCENT (Labsystems; Franklin, Mass.) or FLIPR (fluorometric imaging plate reader system; Molecular Devices, Sunnyvale, Calif.) instruments. Data obtained between 30 and 60 seconds after agonist application are used to generate an 8-point concentration response curve, with final capsaicin concentrations of 1 nM to 3 μM. KALEIDAGRAPH software (Synergy Software, Reading, Pa.) is used to fit the data to the equation: y=a*(1/(1+(b/x)^c)) to determine the 50% excitatory concentration (EC50) for the response. In this equation, y is the maximum fluorescence signal, x is the concentration of the agonist or antagonist (in this case, capsaicin), a is the Emax, b corresponds to the EC50 value and c is the Hill coefficient. Determination of Agonist Activity
Test compounds are dissolved in DMSO, diluted in 20 μl KRH buffer so that the final concentration of test compounds in the assay well is between 1 μM and 5 μM, and added to cells prepared as described above. The 96 well plates containing prepared cells and test compounds are incubated in the dark, at room temperature for 0.5 to 6 hours. It is important that the incubation not continue beyond 6 hours. Just prior to determining the fluorescence response, 100 pi capsaicin in KRH buffer at twice the EC50 concentration determined as described above is automatically added by the FLIPR instrument to each well of the 96 well plate for a final sample volume of 200 μl and a final capsaicin concentration equal to the EC50. The final concentration of test compounds in the assay wells is between 1 μM and 5 μM. […]

T1 sequence (Q8NER1 whole entry): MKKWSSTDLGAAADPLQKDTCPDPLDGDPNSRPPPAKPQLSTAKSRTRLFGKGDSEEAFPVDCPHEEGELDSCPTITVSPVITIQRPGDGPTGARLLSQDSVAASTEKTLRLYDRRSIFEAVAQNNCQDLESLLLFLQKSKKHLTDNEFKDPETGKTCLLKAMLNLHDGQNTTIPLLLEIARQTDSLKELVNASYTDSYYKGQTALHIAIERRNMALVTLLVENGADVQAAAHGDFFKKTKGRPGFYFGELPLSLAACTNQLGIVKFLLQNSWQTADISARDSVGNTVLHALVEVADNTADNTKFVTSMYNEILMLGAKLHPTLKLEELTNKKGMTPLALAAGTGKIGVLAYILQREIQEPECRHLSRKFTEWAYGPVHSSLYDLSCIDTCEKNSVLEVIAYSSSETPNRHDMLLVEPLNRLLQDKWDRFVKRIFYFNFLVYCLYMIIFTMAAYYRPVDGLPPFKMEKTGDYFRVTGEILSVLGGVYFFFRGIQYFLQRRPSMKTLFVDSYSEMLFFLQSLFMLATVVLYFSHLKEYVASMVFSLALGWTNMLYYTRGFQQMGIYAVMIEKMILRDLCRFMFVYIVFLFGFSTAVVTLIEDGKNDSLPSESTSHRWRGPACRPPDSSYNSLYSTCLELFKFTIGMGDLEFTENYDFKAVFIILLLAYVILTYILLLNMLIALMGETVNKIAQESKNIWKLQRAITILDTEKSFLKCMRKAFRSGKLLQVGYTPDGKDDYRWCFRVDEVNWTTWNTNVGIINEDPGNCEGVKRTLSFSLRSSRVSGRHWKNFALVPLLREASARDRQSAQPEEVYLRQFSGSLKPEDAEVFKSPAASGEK

IC50 | Structure (SMILES)
≤ 1 µM | CC1CCCN1c1nc(-c2ccc(F)cc2)cc(N2CCN(c3nc(C#N)ccc3C#N)C[C@H]2C)n1 (stereo in doubt) [Example 1014, 6-{4-[6-(4-fluorophenyl)-2-(2-methylpyrrolidin-1-yl)pyrimidin-4-yl]-3-methylpiperazin-1-yl}pyridine-2,5-dicarbonitrile]

same assay, conditions: Table II; determined as described in Example 6 (antagonist activity); "*" = 1 micromolar or less

Structure (SMILES) | IC50
C[C@@H]1CCCN1c1nc(-c2ccc(Cl)c(F)c2)cc(N2CCN(c3nccnc3Cl)C[C@@H]2C)n1 (relative stereo) [Example 969, rel-4-(4-chloro-3-fluorophenyl)-6-[(2R)-4-(3-chloropyrazin-2-yl)-2-methylpiperazin-1-yl]-2-[(2S)-2-methylpyrrolidin-1-yl]pyrimidine] | ≤ 1 µM
C[C@@H]1CN(c2nccnc2Cl)CCN1c1cc(-c2ccc(F)c(F)c2)nc(Cl)n1 (stereo in doubt) [Example 823, 2-chloro-4-[4-(3-chloropyrazin-2-yl)-2-methylpiperazin-1-yl]-6-(3,4-difluorophenyl)pyrimidine] | ≤ 1 µM
CSc1nc(-c2ccc(F)cc2)cc(N2CCN(c3ncccc3Cl)C[C@H]2C)n1 (stereo in doubt) [Example 839, 4-[4-(3-chloropyridin-2-yl)-2-methylpiperazin-1-yl]-6-(4-fluorophenyl)-2-(methylthio)pyrimidine] | ≤ 1 µM
C[C@@H]1CN(c2ncccc2Cl)CCN1c1cc(-c2ccc(F)cc2)nc(S(C)(=O)=O)n1 (stereo in doubt) [Example 840, 4-[4-(3-chloropyridin-2-yl)-2-methylpiperazin-1-yl]-6-(4-fluorophenyl)-2-(methylsulfonyl)pyrimidine] | ≤ 1 µM
CC1CCCN1c1nc(-c2ccc(F)cc2)cc(N2CCN(c3ncccc3Cl)C[C@H]2C)n1 (stereo in doubt) [Example 842, 4-[4-(3-chloropyridin-2-yl)-2-methylpiperazin-1-yl]-6-(4-fluorophenyl)-2-(2-methylpyrrolidin-1-yl)pyrimidine] | ≤ 1 µM
CC1CCCN1c1nc(-c2cccc(C#N)c2)cc(N2CCN(c3ncccc3Cl)C[C@H]2C)n1 (stereo in doubt) [Example 869, 3-[6-[4-(3-chloropyridin-2-yl)-2-methylpiperazin-1-yl]-2-(2-methylpyrrolidin-1-yl)pyrimidin-4-yl]benzonitrile] | ≤ 1 µM
Cc1cc(-c2cc(Cl)nc(N3CCN(c4ncccc4Cl)C[C@@H]3C)n2)ccc1F (stereo in doubt) [Example 899, 4-chloro-2-[4-(3-chloropyridin-2-yl)-2-methylpiperazin-1-yl]-6-(4-fluoro-3-methylphenyl)pyrimidine] | ≤ 1 µM
Cc1cc(-c2cc(N3CCN(c4ncccc4Cl)C[C@@H]3C)nc(N3CCCC3C)n2)ccc1F (stereo in doubt) [Example 903, 4-[4-(3-chloropyridin-2-yl)-2-methylpiperazin-1-yl]-6-(4-fluoro-3-methylphenyl)-2-(2-methylpyrrolidin-1-yl)pyrimidine] | ≤ 1 µM
C[C@@H]1CN(c2nccnc2Cl)CCN1c1cc(-c2ccc(F)c(Cl)c2)nc(Cl)n1 (stereo in doubt) [Example 907, 2-chloro-4-(3-chloro-4-fluorophenyl)-6-[4-(3-chloropyrazin-2-yl)-2-methylpiperazin-1-yl]pyrimidine] | ≤ 1 µM
C[C@H]1CN(c2nccnc2Cl)CCN1c1cc(-c2ccc(F)c(F)c2)nc(N2CCOCC2)n1 (stereo in doubt) [Example 939, 4-[4-[4-(3-chloropyrazin-2-yl)-2-methylpiperazin-1-yl]-6-(3,4-difluorophenyl)pyrimidin-2-yl]morpholine] | ≤ 1 µM
CC1CN(c2nccnc2Cl)CCN1c1nc(-c2ccc(F)c(Cl)c2)cc(N2CCC[C@H]2C)n1 (stereo in doubt) [Example 943, 4-(3-chloro-4-fluorophenyl)-2-[(2R)-4-(3-chloropyrazin-2-yl)-2-methylpiperazin-1-yl]-6-[(2R)-2-methylpyrrolidin-1-yl]pyrimidine] | ≤ 1 µM
CC1CCCN1c1nc(-c2ccc(F)c(Cl)c2)cc(N2CCN(c3ncc(Cl)cc3Cl)C[C@H]2C)n1 (stereo in doubt) [Example 954, 4-(3-chloro-4-fluorophenyl)-6-[4-(3,5-dichloropyridin-2-yl)-2-methylpiperazin-1-yl]-2-(2-methylpyrrolidin-1-yl)pyrimidine] | ≤ 1 µM

Next, values leading:

IC50 | Structure (SMILES)
≤ 1 µM | C[C@@H]1CN(c2ncccc2Cl)CCN1c1cc(-c2ccc(F)c(Cl)c2)nc(Cl)n1 (stereo in doubt) [Example 827, 2-chloro-4-(3-chloro-4-fluorophenyl)-6-[4-(3-chloropyridin-2-yl)-2-methylpiperazin-1-yl]pyrimidine]
≤ 1 µM | C[C@@H]1CN(c2ncccc2Cl)CCN1c1cc(-c2ccc(F)cc2)nc(N2CCCC2)n1 (stereo in doubt) [Example 841, 4-[4-(3-chloropyridin-2-yl)-2-methylpiperazin-1-yl]-6-(4-fluorophenyl)-2-pyrrolidin-1-ylpyrimidine]
≤ 1 µM | CCOC(=O)c1ccc(-c2cc(N3CCN(c4ncccc4Cl)C[C@H]3C)nc(N3CCCC3C)n2)cc1 (stereo in doubt) [Example 867, ethyl 4-[6-[4-(3-chloropyridin-2-yl)-2-methylpiperazin-1-yl]-2-(2-methylpyrrolidin-1-yl)pyrimidin-4-yl]benzoate]
≤ 1 µM | C[C@@H]1CN(c2ncccc2Cl)CCN1c1cc(-c2cccc(C#N)c2)nc(N2CCOCC2)n1 (stereo in doubt) [Example 870, 3-{6-[4-(3-chloropyridin-2-yl)-2-methylpiperazin-1-yl]-2-morpholin-4-ylpyrimidin-4-yl}benzonitrile]
≤ 1 µM | CC(=O)c1cccc(-c2cc(N3CCN(c4ncccc4Cl)C[C@H]3C)nc(N3CCCC3C)n2)c1 (stereo in doubt) [Example 888, 1-{3-[6-[4-(3-chloropyridin-2-yl)-2-methylpiperazin-1-yl]-2-(2-methylpyrrolidin-1-yl)pyrimidin-4-yl]phenyl}ethanone]
≤ 1 µM | Cc1cc(-c2cc(N3CCN(c4nccnc4Cl)C[C@H]3C)nc(N3CCCC3C)n2)ccc1F (stereo in doubt) [Example 915, 4-[4-(3-chloropyrazin-2-yl)-2-methylpiperazin-1-yl]-6-(4-fluoro-3-methylphenyl)-2-(2-methylpyrrolidin-1-yl)pyrimidine]

same assay, conditions: Table II; determined as described in Example 6; class symbol

IC50 | Structure (SMILES)
≤ 1 µM | Cc1cccc(-c2nc(N3CCOCC3)nc(N3CCN(c4ccccn4)CC3)n2)c1 [Example 234]
≤ 1 µM | CC(C)c1cccc(-c2nc(N3CCOCC3)nc(N3CCN(c4ccccn4)CC3)n2)c1 [Example 235, 2-(3-isopropylphenyl)-4-morpholin-4-yl-6-(4-pyridin-2-ylpiperazin-1-yl)-1,3,5-triazine]
≤ 1 µM | Cc1cc(C)cc(-c2nc(N3CCOCC3)nc(N3CCN(c4ccccn4)CC3)n2)c1 [Example 236, 2-(3,5-dimethylphenyl)-4-morpholin-4-yl-6-(4-pyridin-2-ylpiperazin-1-yl)-1,3,5-triazine]
≤ 1 µM | CCc1cccc(-c2nc(N3CCOCC3)nc(N3CCN(c4ccccn4)CC3)n2)c1 [Example 237, 2-(3-ethylphenyl)-4-morpholin-4-yl-6-(4-pyridin-2-ylpiperazin-1-yl)-1,3,5-triazine]
≤ 1 µM | Cc1cccc(-c2nc(N3CCOCC3)nc(N3CCN(c4ncccc4C(F)(F)F)CC3)n2)c1 [Example 238, 2-(3-methylphenyl)-4-morpholin-4-yl-6-{4-[3-(trifluoromethyl)pyridin-2-yl]piperazin-1-yl}-1,3,5-triazine]
